These results are taken from ChEMBL document CHEMBL1201862, “PubChem BioAssay data set” (2004).

Test systems include CCRF-CEM; COLO 205; EKVX; HCT-15; IGROV-1; K562; NCI-H23; NCI-H460; OVCAR-3; OVCAR-4; OVCAR-5; OVCAR-8; RPMI-8226; SF-295; SK-MEL-28; SN12C; SNB-19; SW-620; UACC-62; UO-31.
Assay in all cases: inhibition of tumour cell growth, NCI panel, 48 h

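Cells were grown in 96-well plates and exposed to each compound for 48 hours at five concentrations; endpoints were interpolated linearly between bracketing concentrations, or set to the highest concentration if not reached. GI50 = concentration required for 50% inhibition of growth.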 Activity calls are given as the source filed them. Rule as the data show it: active = GI50 up to about 1.1 µM and inactive = higher. Bounds are passed on as bounds.

Turning to `COc1ccc(/C=C2/C(=O)N(C(=O)c3ccccc3O)N=C2C)cc1`, the GI50 with CCRF-CEM was 0.124 µM (active); in the assay on COLO 205, 18.2 µM (inactive); with EKVX, 0.608 µM (active); in the assay on HCT-15, 0.263 µM; in the assay on IGROV-1, 0.0234 µM (active); with K562 it was 0.0492 µM (active). Also, the GI50 with NCI-H23 is 0.114 µM (active); in the assay with NCI-H460, 0.262 µM (active); in the assay on OVCAR-3 it was 0.338 µM (active); in the assay with OVCAR-4, 0.655 µM (active); with OVCAR-5, 11.2 µM (inactive); in the assay on OVCAR-8 it was 0.238 µM (active). The GI50 with RPMI-8226 is 0.895 µM (active); with SF-295, 0.0946 µM (active); with SK-MEL-28, 9.4 µM (inactive); in the assay on SN12C it was 0.65 µM (active); in the assay on SNB-19, 0.0484 µM (active); in the assay with SW-620, 1.44 µM (inactive). For the same molecule, the GI50 with UACC-62 is 0.0968 µM (active); in the assay with UO-31, 0.0445 µM (active).
As for `CC(=O)Oc1ccc(C2COc3cc(OC(C)=O)c(OC(C)=O)cc3C2)cc1` (stereo not given), the GI50 with CCRF-CEM was 7.57 µM (inactive); with COLO 205, 17.9 µM (inactive); in the assay with EKVX, 17.3 µM (inactive); in the assay on HCT-15, 18.5 µM; with IGROV-1, 12.8 µM (inactive); in the assay with K562, 16.3 µM (inactive). The GI50 in the assay on NCI-H23 was 16 µM (inactive); with NCI-H460, 17.9 µM (inactive); in the assay on OVCAR-3, 13.7 µM (inactive); with OVCAR-4, 14.4 µM (inactive); with OVCAR-5, 56.9 µM (inactive); with OVCAR-8, 18 µM (inactive). Besides, the GI50 in the assay with RPMI-8226 was 14.9 µM (inactive); with SF-295, 22.2 µM (inactive); in the assay with SK-MEL-28, 16.3 µM (inactive); with SN12C it was 22.4 µM (inactive); in the assay with SNB-19, 32.2 µM (inactive); in the assay with SW-620, 17.4 µM (inactive). Besides, the GI50 in the assay on UACC-62 is 10.1 µM (inactive); in the assay with UO-31 it was 22.3 µM (inactive).
For the molecule `CC(C)OP(=O)(OC(C)C)c1ncn(-c2ccc([N+](=O)[O-])cc2)n1`, the GI50 in the assay on CCRF-CEM is > 100 µM (inactive); in the assay on COLO 205, > 100 µM (inactive); with EKVX it was > 100 µM (inactive); with HCT-15, greater than 100 µM; in the assay on IGROV-1, > 100 µM (inactive); in the assay with K562 it was > 100 µM (inactive). The GI50 in the assay on NCI-H23, in the assay with NCI-H460, in the assay with OVCAR-3, in the assay with OVCAR-4, in the assay with OVCAR-5 and in the assay on OVCAR-8 was > 100 µM (inactive) in each case. The GI50 with RPMI-8226, with SF-295, in the assay on SK-MEL-28, in the assay with SN12C, with SNB-19 and in the assay with SW-620 was > 100 µM (inactive) throughout. The GI50 in the assay on UACC-62 and in the assay with UO-31 was > 100 µM (inactive) throughout.
As to `O=C(O)CCCCn1ccc(=O)[nH]c1=O`, the GI50 is > 100 µM (inactive) in the assay on CCRF-CEM; > 100 µM (inactive) in the assay on COLO 205; > 100 µM (inactive) in the assay with EKVX; greater than 100 µM in the assay with HCT-15; > 100 µM (inactive) with IGROV-1; > 100 µM (inactive) with K562. Moreover, the GI50 with NCI-H23, in the assay with NCI-H460, with OVCAR-3, with OVCAR-4, in the assay on OVCAR-5 and in the assay with OVCAR-8 was > 100 µM (inactive) in each case. Further, the GI50 in the assay on RPMI-8226, in the assay with SF-295, in the assay with SK-MEL-28, with SN12C, in the assay on SNB-19 and in the assay on SW-620 was > 100 µM (inactive) throughout. For the same molecule, the GI50 with UACC-62 and in the assay with UO-31 was > 100 µM (inactive) in each case.
As to `C/C(=C\c1ccccc1)C(=O)CCN1CCOCC1`, the GI50 with CCRF-CEM was 30.6 µM (inactive); with COLO 205, 17.2 µM (inactive); in the assay with EKVX, 27.8 µM (inactive); in the assay on HCT-15, 16.3 µM; in the assay on IGROV-1, 27.4 µM (inactive); in the assay on K562, 30.1 µM (inactive). Further, the GI50 was 16.9 µM (inactive) with NCI-H23; 62.1 µM (inactive) in the assay with NCI-H460; 19.3 µM (inactive) in the assay with OVCAR-3; 18 µM (inactive) in the assay with OVCAR-4; 18.9 µM (inactive) in the assay on OVCAR-5; 20.5 µM (inactive) in the assay with OVCAR-8. In addition, the GI50 was 3.15 µM (inactive) with RPMI-8226; > 100 µM (inactive) in the assay with SF-295; 19.4 µM (inactive) with SK-MEL-28; 18.2 µM (inactive) with SN12C; > 44.9 µM (inactive) with SNB-19; 16.5 µM (inactive) in the assay on SW-620. Also, the GI50 is 17.6 µM (inactive) in the assay with UACC-62 and 20.8 µM (inactive) in the assay with UO-31.
Turning to `C=CC1(c2ccc3ccccc3c2)OCC(CC)O1` (stereo not given), the GI50 was 29.6 µM (inactive) with CCRF-CEM; 36.1 µM (inactive) with COLO 205; 25.1 µM (inactive) in the assay with EKVX; 45.6 µM with HCT-15; 33.9 µM (inactive) in the assay on IGROV-1; 13.9 µM (inactive) with K562. Further, the GI50 in the assay on NCI-H23 was 32.3 µM (inactive); in the assay on NCI-H460, 48.2 µM (inactive); in the assay on OVCAR-3, 47 µM (inactive); in the assay with OVCAR-4, 55.6 µM (inactive); in the assay on OVCAR-5, 48.9 µM (inactive); in the assay on OVCAR-8, > 100 µM (inactive). Moreover, the GI50 in the assay with RPMI-8226 was 46.3 µM (inactive); with SF-295, 61.5 µM (inactive); with SK-MEL-28 it was > 100 µM (inactive); with SN12C, 36.7 µM (inactive); in the assay on SNB-19 it was 94 µM (inactive); with SW-620 it was 46.2 µM (inactive). The GI50 in the assay on UACC-62 was 13.6 µM (inactive); with UO-31, 63.5 µM (inactive).
Regarding `COc1cc2c(cc1OC)[C@@H]1[C@H](C#N)C(=O)C(C)(C)N1CC2`, the GI50 is > 100 µM (inactive) with CCRF-CEM; > 100 µM (inactive) in the assay on COLO 205; > 100 µM (inactive) with EKVX; greater than 100 µM in the assay with HCT-15; > 100 µM (inactive) in the assay on IGROV-1; > 100 µM (inactive) in the assay on K562. The GI50 with NCI-H23, in the assay with NCI-H460, in the assay with OVCAR-3, in the assay with OVCAR-4, with OVCAR-5 and with OVCAR-8 was > 100 µM (inactive) in each case. The GI50 in the assay with RPMI-8226 is 53.7 µM (inactive); with SF-295, > 100 µM (inactive); with SK-MEL-28, > 100 µM (inactive); with SN12C, > 100 µM (inactive); with SNB-19, > 100 µM (inactive); with SW-620, > 100 µM (inactive). Moreover, the GI50 in the assay with UACC-62 and with UO-31 was > 100 µM (inactive) in each case.
